Entries after “also recorded” stand apart in the source; their conditions may differ.
Target: T1, 17β-HSD3 (Homo sapiens, UniProt P37058)
T1 construct: expressed in transfected cells; host or cells: HEK-293 (transient, calcium phosphate), intact cells
T1 sequence (P37058 1-310): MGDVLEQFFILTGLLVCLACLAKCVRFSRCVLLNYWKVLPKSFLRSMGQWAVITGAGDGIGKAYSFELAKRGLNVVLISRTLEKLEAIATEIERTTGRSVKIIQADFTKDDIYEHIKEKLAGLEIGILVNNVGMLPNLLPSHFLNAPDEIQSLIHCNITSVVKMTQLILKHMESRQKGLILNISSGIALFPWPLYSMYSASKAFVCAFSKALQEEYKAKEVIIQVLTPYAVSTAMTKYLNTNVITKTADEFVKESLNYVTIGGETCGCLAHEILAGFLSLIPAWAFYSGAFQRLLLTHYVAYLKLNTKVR
Experiment: 17β-HSD3 activity in intact transfected HEK-293 cells
Format: cell-based
Settings: intact cells
Procedure: (§1) Human embryonic kidney cells (HEK-293) were cultivated in DMEM containing 4.5 g/L glucose, 10% fetal bovine serum, 100 U/mL penicillin, 0.1 mg/mL streptomycin, 1× MEM nonessential amino acids, and 10 mM HEPES buffer, pH 7.4. The cells were incubated at 37 °C until 80% confluency. The cells were transfected using the calcium phosphate method with expression plasmids for 17β-HSD2 and 17β-HSD3. After 24 h, the cells were trypsinized and seeded on poly-L-lysine-coated 96-well plates (15 000 cells/well).
(§2) The inhibitory activities were measured 24 h after seeding as follows: old medium was aspirated and replaced by 30 μL of charcoal-treated DMEM (cDMEM). Ten microliters of inhibitor dissolved in cDMEM into the respective concentration was added, and mixtures were preincubated at 37 °C for 20 min. 17β-HSD2 inhibitory activities were measured in the presence of 190 nM unlabeled estradiol and 10 nM radiolabeled estradiol. N-(3-Methoxyphenyl)-N-methyl-5-m-tolylthiophene-2-carboxamide (compound 19 in ref ([26])) was used as positive control. The reaction mixtures were incubated for 20 min, and the reactions were stopped by adding an excess of estradiol and estrone (1:1, 2 mM in methanol) to the mixture.
17β-HSD3 inhibitory activities were measured in the presence of 190 nM unlabeled androstenedione and 10 nM radiolabeled androstenedione. Benzophenone-1 was used as positive control. The reaction mixtures were incubated for 30 min, and the reactions were stopped by adding an excess of androstenedione and testosterone (1:1, 2 mM in methanol). The steroids were separated by TLC, followed by scintillation counting and calculation of substrate concentration. Data was obtained from three independent measurements.

SMILES	17β-HSD3 inhibition (in words)
O=S(=O)(Nc1ccc(O)c(Cl)c1)c1ccc(F)cc1 [Compound 13]	equipotent toward these two enzymes
Cc1cc(C)c(OCC(=O)N/N=C/c2ccc(O)cc2O)c(Br)c1 [Compound 11]	more active against 17β-HSD3 than 17β-HSD2
Cc1cc(C)c(S(=O)(=O)Nc2cccc(O)c2)cc1C [Compound 16]	weak 17β-HSD3 inhibitors

Same assay, conditions: rest activity at 20 μM, Table 3

SMILES	17β-HSD3 intact inhibition class (n.i.)
O=S(=O)(Nc1cccc(O)c1)c1ccc(Br)cc1 [Compound 21]	n.i
COc1ccc(S(=O)(=O)Nc2cccc(O)c2)c2c1CCCC2 [Compound 23]	n.i
Cc1ccc(NS(=O)(=O)c2cccc(Br)c2)cc1O [Compound 24]	n.i

System: 17β-HSD2
Experiment: not given
Settings: Table S1; ref SI 1, 2, 4; read-out: IC50 17β-HSD2 (test set); cited from earlier work

SMILES	IC50
Oc1ccc(-c2ccc3c(O)cccc3c2)cc1 [Compound 1]	302 nM
CN1C(=O)C[C@H](c2ccccc2F)[C@@H]1[C@H](O)c1ccc(-c2ccccc2)s1 [Compound 8]	10 nM
COc1cccc(-c2ccc(C(=O)N(C)Cc3cccc(O)c3)s2)c1F [Compound 6]	61 nM
CN1C(=O)C[C@H](c2ccccc2)[C@@H]1[C@H](O)c1ccc(-c2cccnc2)s1 [Compound 3]	50 nM
Cc1cccc(-c2ccc(C(=O)N(C)Cc3cccc(O)c3)s2)c1 [Compound 2]	164 nM
COc1ccc(-c2ccc(C(=O)N(C)Cc3cccc(O)c3)s2)cc1 [Compound 7]	161 nM

Same assay, conditions: Table S1; ref SI 3; read-out: IC50 17β-HSD2 (test set); cited from earlier work

SMILES	IC50
Oc1cccc(-c2ccnc(-c3ccc(Cl)s3)c2)c1 [Compound 4]	470 nM

Same assay, conditions: at 1 µM, Table S1; ref SI 1, 2, 3, 5, 6; cited from earlier work

SMILES	17β-HSD2 enzyme inhibition (test set)
Oc1cccc(-c2ccccc2)c1 [580-51-8]	< 10%
CS(=O)(=O)Nc1ccc(-c2ccc(O)cc2)cc1 [319015-65-1]	< 10%
CC(=O)Nc1cccc(-c2ccc(O)cc2)c1 [462660-26-0]	< 10%

Same assay, conditions: at 10 µM, Table S1; ref SI 7, 10; cited from earlier work

SMILES	17β-HSD2 enzyme inhibition (test set)
C[C@]12CC[C@@H]3c4ccc(O)cc4C(=O)C[C@H]3[C@@H]1CCC2=O [1476-34-2]	< 10%

Target: T2, 17β-HSD2 (Homo sapiens, UniProt P37059)
T2 construct: expressed in transfected cells; host or cells: HEK-293 (transient, calcium phosphate), lysate
T2 sequence (P37059 1-387): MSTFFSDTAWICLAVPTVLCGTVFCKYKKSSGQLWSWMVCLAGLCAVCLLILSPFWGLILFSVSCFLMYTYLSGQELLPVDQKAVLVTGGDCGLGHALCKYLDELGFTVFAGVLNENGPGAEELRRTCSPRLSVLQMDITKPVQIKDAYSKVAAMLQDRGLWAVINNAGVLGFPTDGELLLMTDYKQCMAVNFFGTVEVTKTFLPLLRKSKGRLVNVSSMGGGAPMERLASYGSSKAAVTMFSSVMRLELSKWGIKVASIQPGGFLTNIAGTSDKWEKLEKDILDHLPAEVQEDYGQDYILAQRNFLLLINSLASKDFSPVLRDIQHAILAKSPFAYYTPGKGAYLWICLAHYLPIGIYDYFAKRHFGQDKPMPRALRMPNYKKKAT
Experiment: 17β-HSD2 activity in lysates of transfected HEK-293 cells (cell-free, radiolabeled estradiol)
Format: biochemical
Settings: Table S2, virtual screening hits, tested at 20 μM in lysates
Procedure: Next, the 17β-HSD2 inhibitory activities of the chosen hits were evaluated in a cell-free assay. The activities were first determined at an inhibitor concentration of 20 μM using lysates of transfected HEK-293 cells. In all experiments, vehicle was included as negative control and N-(3-methoxyphenyl)-N-methyl-5-m-tolylthiophene-2-carboxamide (compound 19 from ref ([26])) as positive control.
HEK-293 cells were transfected by the calcium phosphate precipitation method with plasmids for human 17β-HSD1, 17β-HSD2, or 11β-HSD2. Cells were cultivated for 48 h, washed with phosphate-buffered saline, and centrifuged for 4 min at 150g. After removal of the supernatants, cell pellets were snap frozen in dry ice and stored at −80 °C until further use.
Lysates of human embryonic kidney cells (HEK-293) expressing either 17β-HSD1 or 17β-HSD2 were incubated for 10 min at 37 °C in TS2 buffer in a final volume of 22 μL containing either solvent (0.2% DMSO/chloroform) or the inhibitor at the respective concentration. N-(3-Methoxyphenyl)-N-methyl-5-m-tolylthiophene-2-carboxamide (compound 19 in ref ([26])) and apigenin[50] were used as positive controls for 17β-HSD1 and 17β-HSD2, respectively, in all experiments. 17β-HSD1 activity was measured in the presence of 190 nM unlabeled estrone, 10 nM radiolabeled estrone, and 500 μM NADPH. In contrast, 17β-HSD2 activity was determined in the presence of 190 nM unlabeled estradiol, 10 nM radiolabeled estradiol, and 500 μM NAD^+. Reactions were stopped after 10 min by adding an excess of unlabeled estradiol and estrone (1:1, 2 mM in methanol). Possible promiscuous enzyme inhibition by aggregate formation of the chemicals was excluded by measuring the inhibition of the enzyme activity by the compounds in the presence of 0.1% Triton X-100.[36] […] To exclude irreversible inhibition by the compounds investigated,[35] cell lysates were preincubated with the compounds for 0, 10, and 30 min, respectively, followed by measurement of the enzyme activity. […] The steroids were separated by TLC, followed by scintillation counting and calculation of substrate concentration. Data were collected from at least three independent measurements.

SMILES	17β-HSD2 Activity (in words)
COC(=O)c1cc(NC(=O)c2ccc(OC)cc2)ccc1O [AN-652/43163172]	Inactive
O=C(COC(=O)c1ccc2c(c1)C(=O)N(c1cccc(O)c1)C2=O)c1ccccc1 [AK-918/37182008]	Inactive
COc1ccccc1NCC(=O)N/N=C/c1sccc1C [AN-329/11413636]	Inactive
COc1ccccc1NC(=O)CCC(=O)OC(C)C(=O)c1ccccc1 (stereo not drawn) [AG-690/15435864]	Inactive
COc1ccc(OC)c(NC(=O)C(C)Oc2ccc(-c3ccccc3)cc2)c1 (stereo not drawn) [AN-329/42958201]	Inactive
CN(C)Cc1ccccc1Sc1ccc(O)cc1O [AE-641/30109032]	Inactive
COc1ccccc1NC(=O)COc1ccc(/C=c2/sc3n(c2=O)CCN=3)cc1 [AH-487/15020191]	Inactive
COc1cc(C(=O)Nc2cc(C(F)(F)F)ccc2N2CCOCC2)ccc1O [AP-906/41927951]	Inactive
O=C(Nc1ccc(O)cc1)c1ccc2c(c1)C(=O)N(Cc1ccco1)C2=O [AN-979/41971109]	Inactive
Cc1ccccc1/C=N/NC(=O)Cn1nnc2ccccc21 [AK-968/11367105]	Inactive
COc1ccc(C(=O)COC(=O)c2ccc(O)cc2)cc1 [AK-918/12108002]	Inactive
O=C(COc1ccc(-c2ccccc2)cc1)Nc1ccccc1C(=O)NC1CCCCC1 [AN-329/42613159]	Inactive
COc1cc(C=Nc2ccc(OC(F)(F)F)cc2)ccc1O [AN-329/11450193]	Inactive
O=C(Cn1nnc2ccccc21)c1ccc(-c2ccccc2)cc1 [AK-918/11592002]	Inactive
O=C(Cn1nnc2ccccc21)N/N=C/c1ccccc1F [AG-205/07947037]	Inactive
CCn1c(Cc2ccccc2)nnc1SCC(=O)Nc1ccccc1OC [AG-690/40750820]	Inactive
O=C(CSc1ccccc1)Nc1ccc(C(=O)Nc2ccc(O)cc2)cc1 [AN-979/42723474]	Inactive
CCCC(=O)Nc1ccc(C(=O)NCc2ccc(OC)cc2)cc1 [AJ-292/42647512]	Inactive
Oc1cccc(C(O)CNCc2ccncc2)c1 (stereo not drawn) [AN-465/42246299]	Inactive
Oc1ccc(-c2cn3cc(C(F)(F)F)ccc3n2)cc1 [AQ-776/42801516]	Inactive

Same assay, conditions: relative to compound 12

SMILES	less potent than the most active hit (17β-HSD2)
O=C(CSc1nccc(O)n1)Nc1cccc2nsnc12 [Compound 15]	5 fold

Target: T3, 11β-HSD1 (Homo sapiens, UniProt P28845)
T3 construct: expressed in transfected cells
Experiment: 11β-HSD1 activity in lysates of stably transfected cells
Format: biochemical
Settings: lysates
Procedure: The methods to determine 11β-HSD1 and -2 activity were performed as described previously.[64] Briefly, lysates of stably transfected cells, expressing either 11β-HSD1 or 11β-HSD2, were incubated for 10 min at 37 °C in TS2 buffer in a final volume of 22 μL containing either solvent (0.2% DMSO) or the inhibitor at the respective concentration. The nonselective 11β-HSD inhibitor glycyrrhetinic acid was used as positive control. Activity measurements of 11β-HSD1 were performed with 190 nM unlabeled cortisone, 10 nM radiolabeled cortisone, and 500 μM NADPH. To measure 11β-HSD2 activity, lysates were incubated with 40 nM unlabeled cortisol, 10 nM radiolabeled cortisol, and 500 μM NAD^+. Reactions were stopped after 10 min by adding an excess of unlabeled cortisone and cortisol (1:1, 2 mM in methanol). The steroids were separated by TLC, followed by scintillation counting and calculation of substrate concentration. Data were collected from at least three independent measurements.

T3 sequence (P28845 whole entry): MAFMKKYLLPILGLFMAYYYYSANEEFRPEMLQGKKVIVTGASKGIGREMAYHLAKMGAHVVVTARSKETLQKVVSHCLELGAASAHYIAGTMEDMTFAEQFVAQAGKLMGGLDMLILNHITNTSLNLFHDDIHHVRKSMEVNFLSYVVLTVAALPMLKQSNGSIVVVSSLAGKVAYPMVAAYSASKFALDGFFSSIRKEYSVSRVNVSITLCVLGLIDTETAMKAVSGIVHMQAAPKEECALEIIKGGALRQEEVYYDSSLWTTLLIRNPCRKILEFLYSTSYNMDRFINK

SMILES	11β-HSD1 versus 17β-HSD2 potency (in words)
COc1ccc(S(=O)(=O)Nc2cccc(O)c2)c2c1CCCC2 [Compound 23]	almost equipotent toward 17β-HSD2 and 11β-HSD1; also recorded: equipotent 17β-HSD2 and 11β-HSD1 inhibitors

Target: T2, 17β-HSD2
Experiment: 17β-HSD2 activity in intact transfected HEK-293 cells
Format: cell-based
Settings: intact HEK-293 cells
Procedure: as §1, §2

SMILES	17β-HSD2 inhibition in intact cells (in words)
O=S(=O)(Nc1ccc(O)c(Cl)c1)c1ccc(F)cc1 [Compound 13]	concentration-dependently inhibited 17β-HSD2
Cc1cc(C)c(OCC(=O)N/N=C/c2ccc(O)cc2O)c(Br)c1 [Compound 11]	concentration-dependently inhibited 17β-HSD2
O=C(CSc1nccc(O)n1)Nc1cccc2nsnc12 [Compound 15]	concentration-dependently inhibited 17β-HSD2

Reference: PMC4111740, “Ligand-Based Pharmacophore Modeling and Virtual Screening for the Discovery of Novel 17β-Hydroxysteroid Dehydrogenase 2 Inhibitors” (Journal of Medicinal Chemistry, 2014)
